“Also recorded” adds a separate entry of the source.
Columns and labels:
[1] = tested on: Pan02 murine pancreatic adenocarcinoma; assay: Efficacy study in the syngenic orthotopic Pan02 tumor model (Example 15); format: in vivo, female C57BL/6 mice; conditions: oral, 21 days
Text: The purpose of this study was to obtain information about the efficacy of the oral combination of Chamomile extract (MR31E25C1 and Retinoic acid (RetAcid) in a syngenic orthotropic PAN02 tumor murine model.
Young (approximately 7 weeks) female C57BL/6 mice were purchased from the National Cancer Institute (Frederick, Md.) and maintained in Aurigon Life Science GmbH's animal care facility with ad libitum access to water and mouse chow (Ssniff® R/M-H). The animals were divided into groups of 10 animals.
All animals, except those in the non-inoculated control group, were given an intrapancreatic injection of 2.5×10^5 Pan02 tumor cells each. Pan02 is a murine pancreatic adenocarcinoma cell line syngeneic to the C57BL/6 species. First treatment was given orally 15 days after the inoculation for a total period of 21 days.
Necropsy was performed at the end of the in-life phase or immediately on animals found dead or killed in extremis. The weights of the brain, whole pancreas, pancreatic tumor, spleen, and liver were determined and the number/size of metastases on the surface of the spleen and liver, peritoneal, kidney, ovary, diaphragm metastases, and metastases of the lymph nodes (if applicable) were recorded. Additionally, the size of the pancreatic tumors of the animals was measured.
The groups were as follows:
Group 1: Non-inoculated, untreated control group. […]

[2] = tested on: H460 human large cell lung cancer cell line; assay: Cellular growth of H460 cells, AMT without chamomile, with MR15E14 or with CHARE (Example 12); format: cell-based; conditions: extracts 21 μg/ml, 1% AMT, retinoic acid 1 μg/ml or 1% ethanol, 6 days, FIG. 3A/3B
Protocol: (§1) The following experiments were performed to compare the composition of the present invention with the teaching of WO 03101479 A1: The human large cell lung cancer cell line, H460, was obtained from the American Type Culture Collection. The cells were cultivated in RPMI-1640 medium containing 10% FBS and kept in a humidified incubator at 37° C. and 5% CO2. Cultures used in subsequent experiments were passaged less than 25 times. The H460 cells were seeded at 14375 cells/well (cell concentration of 10,000 cells/ml) in 12 well plates and were left to adhere overnight.
The H460 cells were incubated with the samples and sample pairs for a total of 6 days with one dose and media refreshment. After 6 days, all cells were harvested to be analyzed. The cell number was determined using flow cytometry. Live cells were differentiated from dead cells by adding Propidium iodide (PI). In short, cells were trypsinized, centrifuged and resuspended in 500 μl of media. 2 μl of PI (1 mg/ml) was added to 400 μl of cell suspension. Since the cells number present in 10 μl of the cell suspension was measured, multiple measurements for each well were taken. […] Solvent control was set at 100%.

[3] = tested on: H460 human large cell lung cancer cell line; assay: Cellular growth of H460 cells, flow cytometry cell count with PI (Example 11); format: cell-based; conditions: retinoic acid 1 μg/ml, extracts 21 μg/ml, 6 days, 2% ethanol, FIG. 2
Protocol: as §1, with “The” for “The following experiments were performed to compare the composition of the present invention with the teaching of WO 03101479 A1: The”
MR15E14, CHARE and Retinoic acid prepared as described in examples 2, 4 and 9 respectively including a solvent control (2% ethanol) were added to the cells. Media were replaced once after 3 days of incubation with fresh media and samples. After 6 days, all cells were harvested to be analyzed. The cell number was determined using flow cytometry. Live cells were differentiated from dead cells by adding Propidium iodide (PI). Live cells would be PI negative since the dye would be excluded from viable cells.
In short, cells were trypsinized, centrifuged and resuspended in 500 μl of media. 2 μl of PI (1 mg/ml) was added to 400 μl of cell suspension. Since the cells number present in 10 μl of the cell suspension was measured, multiple measurements for each well were taken.
Solvent control was set at 100%.

[4] = tested on: U87 MG human glioblastoma cell line; assay: Cellular growth of U87 MG cells, live cell count with Trypan Blue (Example 10); format: cell-based; conditions: MR15E7 30 μg/ml, retinyl acetate 1 μg/ml, 6 days, FIG. 1B
Protocol: The human glioblastoma cell lines A172 and U87 MG were cultivated in culture medium containing 10% FBS and kept in a humidified incubator at 37° C. and 5% CO2. Cultures used in subsequent experiments were passaged less than 25 times. The cells were seeded at 100,000 cells in T25 cm2 culture flasks (cell concentration of 10,000 cells/ml). MR15E7 and Retinyl Acetate prepared according to examples 1 and 8 respectively were added alone as individual or together in combination (A172 FIGS. 1A and U87 FIG. 1B). The solvent control was 2% ethanol.
Media were replaced once after 3 days of incubation with fresh media and samples. After 6 days, all cells were harvested to be analyzed. The cell number was determined using a cell counter (Countess® automated cell counter, Invitrogen).
Live cells were differentiated from dead cells by adding Trypan Blue. Live cells would be Trypan Blue negative since the dye would be excluded from viable cells.
Solvent control was set at 100%. […] The potential growth inhibitory effects of retinyl acetate (1 μg/ml), MR15E7 (30 μg/ml) and the combination of 30 μg/ml of the extract and retinyl acetate (1 μg/ml) were observed on both the A172 (A) and U87 MG (B) cell lines. The solvent control and the final ethanol concentration for every well was 2%.

[5] = tested on: A172 human glioblastoma cell line; assay: Cellular growth of A172 cells, live cell count with Trypan Blue (Example 10); format: cell-based; conditions: retinyl acetate 1 μg/ml, 6 days, FIG. 1A
Protocol: The human glioblastoma cell lines A172 and U87 MG were cultivated in culture medium containing 10% FBS and kept in a humidified incubator at 37° C. and 5% CO2. Cultures used in subsequent experiments were passaged less than 25 times. The cells were seeded at 100,000 cells in T25 cm2 culture flasks (cell concentration of 10,000 cells/ml). MR15E7 and Retinyl Acetate prepared according to examples 1 and 8 respectively were added alone as individual or together in combination (A172 FIGS. 1A and U87 FIG. 1B). The solvent control was 2% ethanol. Media were replaced once after 3 days of incubation with fresh media and samples. After 6 days, all cells were harvested to be analyzed. The cell number was determined using a cell counter (Countess® automated cell counter, Invitrogen). Live cells were differentiated from dead cells by adding Trypan Blue. Live cells would be Trypan Blue negative since the dye would be excluded from viable cells. […] Solvent control was set at 100%. […] The solvent control and the final ethanol concentration for every well was 2%.

SMILES | median tumor volume ([1]; MR31E25C1 484.5 mg/kg 3x daily, retinoic acid 25 mg/kg 2x daily for 2 days, then 10 mg/kg daily, FIG. 5) | cumulative metastases area in various organs ([1]; same doses, vs untreated PAN02 inoculated group, FIG. 6) | effect on cellular growth [2] | effect on cellular growth [3] | effect on cellular growth [4] | effect on cellular growth [5]
CC1=C(/C=C/C(C)=C/C=C/C(C)=C/C(=O)O)C(C)(C)CCC1 [Retinoic acid, all-trans-Retinoic acid] | even aggravated the situation | only slight reduction of the overall metastasis development | slight growth retarding effect | slightly reduced the cellular growth | – | –
CC(=O)OC/C=C(C)/C=C/C=C(C)/C=C/C1=C(C)CCCC1(C)C [retinyl acetate, Retinyl Acetate] | – | – | – | – | did not affect cellular growth; also recorded: do not affect cellular growth | did not affect cellular growth; also recorded: do not affect cellular growth

Reference: patent publication US10028989B2, “Composition comprising Retinol, a precursor or a reaction product of it and a plant extract from at least one Chamomilla plant for the treatment of cancer” (ALPINIA LAUDANUM INSTITUTE OF PHYTOPHARMACEUTICAL SCIENCES …, priority 2010, dated 2018)
